Marks after values point to notes of the source that are not given here.
Tests used:
[1] = target: T1, Dopamine D2 receptor (hD2L) (Homo sapiens, UniProt P14416); experiment: Dopamine D2 Receptor Binding Assay ([3H]spiperone, CHO-hD2L membranes); conditions: [3H]spiperone 0.4 nM, membrane preparation from CHO-hD2L cells
T1 construct: expressed in transfected cells; host or cells: CHO cells (CHO-hD2L)
Excerpt: The ability of the novel compounds of this invention to bind to the dopamine D2 receptor can be determined using conventional radioligand receptor binding assays. All receptors can be heterologously expressed in cell lines and binding assays can be conducted in membrane preparations from the cell lines using procedures outlined below. IC50 concentrations can be determined by nonlinear regression of concentration-dependent reduction in specific binding. The Cheng-Prussoff equation can be used to convert the IC50 to Ki concentrations.
[^3H]Spiperone binding to a membrane preparation from CHO-hD2L cells was carried out in 250 μl of 50 mM Tris-HCl buffer containing 100 mM NaCl, 1 mM MgCl2 and 1% DMSO at pH 7.4. Duplicate samples containing (in order of addition) the test compounds, 0.4 nM [^3H]spiperone and approximately 12 μg protein were incubated for 120 minutes at room temperature. Bound radioligand was separated by rapid filtration under reduced pressure through Whatman GF/B glass fiber filters previously treated with 0.3% polyethyleneimine. Radioactivity retained on the filter is determined by liquid scintillation spectrophotometry.

[2] = test system: spontaneous locomotor activity in rats; experiment: Spontaneous Locomotor Activity Inhibition Test; format: in vivo, rat; conditions: 60 min after dosing, recorded 1 hour, mean ± SEM
Excerpt: Potential therapeutic effects of 2-{4-[4-(7-Fluoro-naphthalen-1-yl)-piperazin-1-yl]-butoxy}-5,6,7,9-tetrahydro-1,7,9-triaza-benzocyclohepten-8-one (hereinafter the “test compound”) were investigated in a spontaneous locomotor activity inhibition test in rats, a behavioral test predictive of antipsychotic activity. (A. E. Corbin, et. al.: PD 158771, a potential antipsychotic agent with D2/D3 partial agonist and 5-HT1A agonist actions. II. Prelinical behavioral effects. Neuropharmacology 39: 1211-1221 (2000)) The testing was performed using 16-Beam Digiscan Animal Activity Monitors (Accuscan Electronics, Columbus, Ohio). Each test chamber consisted of a PLEXIGLAS® box measuring 16×16 inches. These boxes were housed inside stainless steel, ventilated sound-attenuating chambers (SACs). Lights inside the SACs were off. Male Sprague-Dawley rats (Harlan), weighing 180 to 200 g at the time of testing, were used. Rats were provided with food and water ad libitum, but were food deprived for 24 hours before testing. Rats were randomly assigned to vehicle or drug treatment groups, and were tested one per chamber. On the test day, rats were removed from the housing room and brought to the test room, where they were placed into PLEXIGLAS® isolator cages on corncob bedding, 4 rats per cage. Rats were dosed orally (PO) with the test compound or vehicle, and then returned to the isolators. After a 60-minute absorption period, each rat was placed into the test chamber, the chamber door closed, and recording of locomotor activity begun. Locomotor activity was recorded for 1 hour, in 5-minute blocks. The test compound was suspended in 1% cremophor EL, 1% HCl 1N, and 0.5% methocel in water. The test compound or the vehicle was administered in a volume of 5 mL/kg. Doses are expressed as the active moiety (ie, base). Locomotor activity was measured as centimeters traveled and expressed as percent inhibition from vehicle control. Statistical analysis was performed using a one-way ANOVA followed by a post hoc Dunnett's test. Data from the vehicle-treated control groups from each experiment were compared using a one-way ANOVA.

T1 sequence (P14416 whole entry): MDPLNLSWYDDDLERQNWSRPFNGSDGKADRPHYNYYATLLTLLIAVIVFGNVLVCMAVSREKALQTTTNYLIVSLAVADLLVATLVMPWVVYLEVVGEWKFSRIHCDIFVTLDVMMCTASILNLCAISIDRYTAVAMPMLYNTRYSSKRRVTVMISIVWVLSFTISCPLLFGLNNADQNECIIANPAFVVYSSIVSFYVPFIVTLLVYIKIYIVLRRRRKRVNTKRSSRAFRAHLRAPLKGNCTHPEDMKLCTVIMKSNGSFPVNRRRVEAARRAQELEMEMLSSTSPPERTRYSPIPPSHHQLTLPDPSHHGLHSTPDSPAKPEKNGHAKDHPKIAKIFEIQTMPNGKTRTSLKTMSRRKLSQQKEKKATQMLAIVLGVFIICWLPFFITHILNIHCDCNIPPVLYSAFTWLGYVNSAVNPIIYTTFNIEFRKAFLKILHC

With `O=C1NCCc2ccc(OCCCCN3CCN(c4cccc5ccc(F)cc45)CC3)nc2N1` [Example 18, 2-{4-[4-(7-Fluoro-naphthalen-1-yl)-piperazin-1-yl]-butoxy}-5,6,7,9-tetrahydro-1,7,9-triaza-benzocyclohepten-8-one] as the compound, how does the Ki [1] read?
Its Ki is 1.79 nM.

What about the “Percent Decrease from Control (locomotor activity)” value (“Percent Decrease from Control” below) ([2]; 0.1 mg/kg PO) of the same compound?
The value was 9.0 ± 37.9^c.

What about the “Percent Decrease from Control” value ([2]; 0.3 mg/kg PO) of the same compound?
Its value is 38.3 ± 47.2^bd.

And the “Percent Decrease from Control” value ([2]; 1 mg/kg PO)?
Its value is 53.7 ± 4.8^bd.

What about the “Percent Decrease from Control” value ([2]; 3 mg/kg PO) of the same compound?
The value was 75.4 ± 3.5^cd.

— US20060234997A1, “Tetrahydro-pyridoazepin-8-ones and related compounds for the treatment of schizophrenia” (WARNER-LAMBERT COMPANY LLC, priority 2005, published 2006)
